Results reported in ChEMBL document CHEMBL3046461, “Synthesis and herbicidal activity of sulfonanilides having a pyrimidinyl-containing group at the 2-position” (J Pestic Sci, 2011).

Legend:
[1] = test system: Schoenoplectiella juncoides; experiment: Herbicidal activity against Schoenoplectiella juncoides subsp. Hotarui (Ohwi) T. Koyama assessed as induction of crop damage after 28 days post compound application; assay type: functional
[2] = test system: Pontederia vaginalis; experiment: Herbicidal activity against Monochoria vaginalis assessed as induction of crop damage after 28 days post compound application; assay type: functional
[3] = test system: Oryza sativa; experiment: Phytotoxicity against two-leaf stage paddy Oryza sativa (rice) seedlings assessed as induction of crop damage after 28 days post compound application; assay type: organism-based; details: in vivo, 672 h
[4] = test system: Echinochloa oryzicola; experiment: Herbicidal activity against Echinochloa oryzicola assessed as induction of crop damage after 28 days post compound application; assay type: functional

SMILES | ED90 [1] [gAi/ha] | ED90 [2] [gAi/ha] | ED20 [3] [gAi/ha] | ED20 [4] [gAi/ha]
COCc1cccc(C(O)c2nc(OC)cc(OC)n2)c1NS(=O)(=O)C(F)F (stereo unspecified) | 4 | 4 | 63 | 16
CCOc1cccc(C(O)c2nc(OC)cc(OC)n2)c1NS(=O)(=O)C(F)F (stereo unspecified) | 16 | 16 | 16 | 63
CCCOc1cccc(C(O)c2nc(OC)cc(OC)n2)c1NS(=O)(=O)C(F)F (stereo unspecified) | 250 | 63 | 63 | 250
COc1cc(OC)nc(C(O)c2cccc(Oc3ccccc3)c2NS(=O)(=O)C(F)F)n1 (stereo unspecified) | >1000 | 250 | 1000 | >1000
COc1cc(OC)nc(C(O)c2cccc(SC)c2NS(=O)(=O)C(F)F)n1 (stereo unspecified) | 63 | 63 | 63 | 250
CCSC(c1nc(OC)cc(OC)n1)c1ccccc1NS(=O)(=O)C(F)(F)F (stereo unspecified) | 4 | 16 | 63 | 1000
CC[S+]([O-])C(c1nc(OC)cc(OC)n1)c1ccccc1NS(=O)(=O)C(F)(F)F (stereo unspecified) | 63 | 1000 | 1000 | >1000
CCS(=O)(=O)C(c1nc(OC)cc(OC)n1)c1ccccc1NS(=O)(=O)C(F)(F)F (stereo unspecified) | 250 | 250 | 1000 | >1000
COc1cc(OC)nc(C(O)c2c(F)cccc2NS(=O)(=O)C(F)F)n1 (stereo unspecified) | 16 | 16 | 16 | 63
COc1cc(OC)nc(C(O)c2c(Cl)cccc2NS(=O)(=O)C(F)F)n1 (stereo unspecified) | 250 | 64 | 1000 | >1000
COc1cc(OC)nc(C(O)c2cc(Cl)ccc2NS(=O)(=O)C(F)F)n1 (stereo unspecified) | >1000 | 1000 | 1000 | >1000
COc1ccc(NS(=O)(=O)C(F)F)c(C(O)c2nc(OC)cc(OC)n2)c1 (stereo unspecified) | >1000 | 250 | 63 | >1000
COc1cc(OC)nc(C(O)c2ccc(Cl)cc2NS(=O)(=O)C(F)F)n1 (stereo unspecified) | 63 | 63 | 63 | 250
COc1cc(OC)nc(C(O)c2ccc(C)cc2NS(=O)(=O)C(F)F)n1 (stereo unspecified) | 16 | 16 | 16 | 1000
COc1ccc(C(O)c2nc(OC)cc(OC)n2)c(NS(=O)(=O)C(F)F)c1 (stereo unspecified) | 63 | 16 | 16 | 16
COc1cc(OC)nc(C(O)c2cccc(F)c2NS(=O)(=O)C(F)F)n1 (stereo unspecified) | 4 | 4 | 16 | 250
COc1cc(OC)nc(C(O)c2cccc(C)c2NS(=O)(=O)C(F)F)n1 (stereo unspecified) | 16 | 4 | 16 | 16
COc1cc(OC)nc(C(O)c2cccc(OC)c2NS(=O)(=O)C(F)F)n1 (stereo unspecified) | 63 | 16 | 4 | 16
CCc1cccc(C(O)c2nc(OC)cc(OC)n2)c1NS(=O)(=O)C(F)F (stereo unspecified) | 4 | 16 | 63 | 16
